Data on 35 compounds can be found in patent US10183936B2, “Hepatitis B core protein allosteric modulators” (priority 2014, dated 2019).

Series [1] concerns AD38 cells. Kind of series: Viability of AD38 cells (Promega CellTiter-Glo) at the end of compound treatment. It is filed as cell-based. The following applies: 10 μM compound, 6 days, luminescence normalized against DMSO control wells (controls being 100%). In short, it runs like this: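 Luminescent CellTiter-Glo read-out, taken after supernatant was swapped for tetracycline-free 2% FBS medium with 1% DMSO, gave percent viability relative to DMSO controls set at 100%. Cells were plated at 50,000/well and exposed to compound, added as a 10× stock in 10% DMSO, for 6 days at 37° C.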
For orientation: In ATP-based viability assays light output follows the ATP content of the culture.

Series [2] concerns HBV viral production in AD38 cells. Kind of series: Viral load production in AD38 cells by quantitative PCR of the HBV core sequence in supernatant. It is filed as cell-based. The following applies: Hepatitis B virus, 144 h; 10 μM compound, 6 days at 37° C., viral load in supernatant compared against DMSO control wells; read-out: AD38 Viral Load (CpAM/DMSO %) at 10 μM. Put shortly:
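Read-out is TaqMan qPCR of the HBV core region in supernatant, quantitated against standards and referenced to DMSO controls (≥3 per plate). Cells: AD38 at 50,000/well, exposed to compound (added as 10× stock in 10% DMSO) for 6 days at 37° C.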

Regarding `O=C(NCCc1cccnc1)c1ccc2c(c1)NC(=O)c1ccc(F)cc1S2` [Compound 1377], the “AD38 Viability Normalized Result (CPAM/DMSO %) at 10 μM” value in series [1] came to 65%. Besides, the activity at 10 µM in series [2] was 5%.

For the compound `O=C(NCc1cnco1)c1ccc2c(c1)NC(=O)c1ccccc1[S+]2[O-]` (stereo not shown) [Compound 1381], the “AD38 Viability Normalized Result (CPAM/DMSO %) at 10 μM” value in series [1] is listed as 93%. In series [2], the activity at 10 µM came out at 40%.

As to `O=C(Nc1ccncc1)c1ccc2c(c1)NC(=O)c1ccccc1[S+]2[O-]` (stereo not shown) [Compound 1382], the “AD38 Viability Normalized Result (CPAM/DMSO %) at 10 μM” value in series [1] is 117%. Further, the activity at 10 µM in series [2] was 47%.

With `O=C(NCCc1ccccn1)c1ccc2c(c1)NC(=O)c1cccc(F)c1S2` [Compound 1383], the “AD38 Viability Normalized Result (CPAM/DMSO %) at 10 μM” value in series [1] is given as 87%. Moreover, in series [2], the activity at 10 µM came out at 1%.

`CN(C)S(=O)(=O)c1ccc(CCNC(=O)c2ccc3c(c2)NC(=O)c2cc(F)ccc2S3)cc1` [Compound 1384]: the “AD38 Viability Normalized Result (CPAM/DMSO %) at 10 μM” value in series [1] was found to be 79%. In series [2], the activity at 10 µM is 4%.

With `O=C(Nc1cccc(-c2ccccn2)c1)c1ccc2c(c1)NC(=O)c1cc(F)ccc1S2` [Compound 1385], the “AD38 Viability Normalized Result (CPAM/DMSO %) at 10 μM” value in series [1] is on record as 51%. Further, the activity at 10 µM in series [2] was determined as 26%.

Take `O=C(Nc1cccc(-c2cnco2)c1)c1ccc2c(c1)NC(=O)c1cc(F)ccc1S2` [Compound 1386]: the “AD38 Viability Normalized Result (CPAM/DMSO %) at 10 μM” value in series [1] turned out to be 95%. Moreover, in series [2], the activity at 10 µM is 61%.

Take `CN(C)S(=O)(=O)c1ccc(CCNC(=O)c2ccc3c(c2)NC(=O)c2ccc(F)cc2S3)cc1` [Compound 1387]: the “AD38 Viability Normalized Result (CPAM/DMSO %) at 10 μM” value in series [1] worked out at 78%. In addition, in series [2], the activity at 10 µM is 2%.

In the case of `O=C(NCc1cncs1)c1ccc2c(c1)NC(=O)c1ccccc1[S+]2[O-]` (stereo not shown) [Compound 1388], in series [1], the “AD38 Viability Normalized Result (CPAM/DMSO %) at 10 μM” value was 71%. Also, the activity at 10 µM in series [2] was determined as 5%.

In the case of `O=C(NCCc1cccnc1)c1ccc2c(c1)NC(=O)c1ccccc1[S+]2[O-]` (stereo not shown) [Compound 1389], the “AD38 Viability Normalized Result (CPAM/DMSO %) at 10 μM” value in series [1] is reported as 89%. Moreover, in series [2], the activity at 10 µM worked out at 15%.

In the case of `O=C(NCc1cncnc1)c1ccc2c(c1)NC(=O)c1cccc(F)c1S2` [Compound 1390], in series [1], the “AD38 Viability Normalized Result (CPAM/DMSO %) at 10 μM” value is listed as 92%. The activity at 10 µM in series [2] amounted to 2%.

`O=C(NCCc1cccnc1)c1ccc2c(c1)NC(=O)c1cccc(F)c1S2` [Compound 1391]: in series [1], the “AD38 Viability Normalized Result (CPAM/DMSO %) at 10 μM” value was 71%. The activity at 10 µM in series [2] worked out at 2%.

Regarding `O=C(NCc1cccnc1)c1ccc2c(c1)NC(=O)c1cccc(F)c1S2` [Compound 1392], the “AD38 Viability Normalized Result (CPAM/DMSO %) at 10 μM” value in series [1] is 85%. Further, in series [2], the activity at 10 µM was 2%.

As for `O=C(Nc1ccncc1)c1ccc2c(c1)NC(=O)c1cccc(F)c1S2` [Compound 1393], the “AD38 Viability Normalized Result (CPAM/DMSO %) at 10 μM” value in series [1] is recorded as 87%. In addition, in series [2], the activity at 10 µM was 41%.

Consider `O=C(NCCc1ccccn1)c1cc2c(cc1F)Sc1ccccc1C(=O)N2` [Compound 1394], for which, in series [1], the “AD38 Viability Normalized Result (CPAM/DMSO %) at 10 μM” value is on record as 94%. In addition, the activity at 10 µM in series [2] stood at 55%.

Turning to `O=C(NCCc1cccnc1)c1cc2c(cc1F)Sc1ccccc1C(=O)N2` [Compound 1395], the “AD38 Viability Normalized Result (CPAM/DMSO %) at 10 μM” value in series [1] was found to be 79%. The activity at 10 µM in series [2] is 64%.

For `O=C(NCc1cccnc1)c1cc2c(cc1F)Sc1ccccc1C(=O)N2` [Compound 1396], the “AD38 Viability Normalized Result (CPAM/DMSO %) at 10 μM” value in series [1] worked out at 95%. Besides, the activity at 10 µM in series [2] was 63%.

On to `COCC(Cc1cncnc1)NC(=O)c1ccc2c(c1)NC(=O)c1cc(F)ccc1S2` (stereo not shown) [Compound 1397], for which the “AD38 Viability Normalized Result (CPAM/DMSO %) at 10 μM” value in series [1] worked out at 95%. Further, the activity at 10 µM in series [2] was 73%.

On to `CN(C)S(=O)(=O)c1ccc(CCCNC(=O)c2ccc3c(c2)NC(=O)c2ccc(F)cc2S3)cc1` [Compound 1398], for which the “AD38 Viability Normalized Result (CPAM/DMSO %) at 10 μM” value in series [1] was 60%. Further, the activity at 10 µM in series [2] was found to be 5%.

On to `O=C1Nc2cc(S(=O)(=O)N3CCCCC3)ccc2Sc2ccccc21` [Compound 1399], for which the “AD38 Viability Normalized Result (CPAM/DMSO %) at 10 μM” value in series [1] turned out to be 92%. Also, the activity at 10 µM in series [2] came out at 105%.

In the case of `O=C(Nc1cccc(-c2cccnc2)c1)c1ccc2c(c1)NC(=O)c1cc(F)ccc1S2` [Compound 1400], the “AD38 Viability Normalized Result (CPAM/DMSO %) at 10 μM” value in series [1] is reported as 105%. Besides, in series [2], the activity at 10 µM came to 34%.

In the case of `O=C(NCCc1cnco1)c1ccc2c(c1)NC(=O)c1ccc(F)cc1S2` [Compound 1402], the “AD38 Viability Normalized Result (CPAM/DMSO %) at 10 μM” value in series [1] amounted to 81%. In series [2], the activity at 10 µM turned out to be 12%.

As for `O=C(NCCc1cncs1)c1ccc2c(c1)NC(=O)c1ccc(F)cc1S2` [Compound 1403], the “AD38 Viability Normalized Result (CPAM/DMSO %) at 10 μM” value in series [1] is recorded as 82%. The activity at 10 µM in series [2] came out at 15%.

On to `CCOC(=O)C(NC(=O)c1ccc2c(c1)NC(=O)c1cc(F)ccc1S2)c1ccncc1` (stereo not shown) [Compound 1405], for which the “AD38 Viability Normalized Result (CPAM/DMSO %) at 10 μM” value in series [1] stood at 94%. Moreover, the activity at 10 µM in series [2] worked out at 14%.

On to `O=C(NCc1cncs1)c1ccc2c(c1)NC(=O)c1cccc(F)c1S2` [Compound 1407], for which, in series [1], the “AD38 Viability Normalized Result (CPAM/DMSO %) at 10 μM” value is 103%. Further, in series [2], the activity at 10 µM was 3%.

As to `O=C(NCc1cnco1)c1ccc2c(c1)NC(=O)c1cccc(F)c1S2` [Compound 1408], the “AD38 Viability Normalized Result (CPAM/DMSO %) at 10 μM” value in series [1] amounted to 94%. Moreover, the activity at 10 µM in series [2] is 17%.

As to `O=C(NCCc1cncnc1)c1ccc2c(c1)NC(=O)c1cccc(F)c1S2` [Compound 1409], in series [1], the “AD38 Viability Normalized Result (CPAM/DMSO %) at 10 μM” value was 83%. Besides, the activity at 10 µM in series [2] turned out to be 4%.

On to `O=C(Nc1cccc(-c2ccccc2)c1)c1ccc2c(c1)NC(=O)c1cccc(F)c1S2` [Compound 1410], for which, in series [1], the “AD38 Viability Normalized Result (CPAM/DMSO %) at 10 μM” value is listed as 50%. For the same compound, the activity at 10 µM in series [2] was 35%.

With `O=C(NCCc1cncnc1)c1cc2c(cc1F)Sc1ccccc1C(=O)N2` [Compound 1411], the “AD38 Viability Normalized Result (CPAM/DMSO %) at 10 μM” value in series [1] amounted to 91%. Moreover, the activity at 10 µM in series [2] was 66%.

Regarding `O=C1Nc2cc(S(=O)(=O)Nc3ccccc3)ccc2Sc2ccccc21` [Compound 1412], in series [1], the “AD38 Viability Normalized Result (CPAM/DMSO %) at 10 μM” value came to 87%. The activity at 10 µM in series [2] was 48%.

As for `O=C1Nc2cc(S(=O)(=O)Nc3ccc(F)cc3)ccc2Sc2ccccc21` [Compound 1413], in series [1], the “AD38 Viability Normalized Result (CPAM/DMSO %) at 10 μM” value is reported as 78%. In series [2], the activity at 10 µM stood at 92%.

As to `O=C1Nc2cc(S(=O)(=O)NCc3ccccc3)ccc2Sc2ccccc21` [Compound 1414], in series [1], the “AD38 Viability Normalized Result (CPAM/DMSO %) at 10 μM” value is 89%. In addition, the activity at 10 µM in series [2] came to 39%.

For the compound `O=C1Nc2cc(S(=O)(=O)NCc3ccc(F)cc3)ccc2Sc2ccccc21` [Compound 1415], the “AD38 Viability Normalized Result (CPAM/DMSO %) at 10 μM” value in series [1] was 77%. For the same compound, the activity at 10 µM in series [2] was 27%.

Consider `O=C(NCCc1cnco1)c1ccc2c(c1)NC(=O)c1cc(F)ccc1S2` [Compound 1417], for which the “AD38 Viability Normalized Result (CPAM/DMSO %) at 10 μM” value in series [1] amounted to 75%. In addition, the activity at 10 µM in series [2] worked out at 11%.

Regarding `O=C(NCCc1cncs1)c1ccc2c(c1)NC(=O)c1cc(F)ccc1S2` [Compound 1418], the “AD38 Viability Normalized Result (CPAM/DMSO %) at 10 μM” value in series [1] was determined as 73%. In addition, the activity at 10 µM in series [2] worked out at 12%.
